Experimental data: the supplement of paper PMC10307832

Tests used:
Assay in all cases: relative viability (nuclei count vs DMSO), 5 days (fraction); higher = more cells survive
[1] = compound: CC(C)N(CCCNC(=O)Nc1ccc(C(C)(C)C)cc1)C[C@H]1O[C@@H](n2ccc3c(N)ncnc32)[C@H](O)[C@@H]1O + O=C(c1cc(Cc2n[nH]c(=O)c3ccccc23)ccc1F)N1CCN(C(=O)C2CC2)CC1 [Olaparib] (partner 8 µM)
Procedure, shortened: (§1)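 Relative viability is defined as nuclei in treated wells over nuclei in vehicle wells. Duplicate plates were run and medians reported. Lung cancer cell lines in 1536-well plates were dosed by pin tool one day after seeding, with one drug or with a fixed anchor-drug dose plus five library-drug doses (not always all listed) in √10 steps, and nuclei were counted after 5 days.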

Shikonin + Linsitinib = compound: CC(C)=CC[C@@H](O)C1=CC(=O)c2c(O)ccc(O)c2C1=O [Shikonin] + C[C@]1(O)C[C@@H](c2nc(-c3ccc4ccc(-c5ccccc5)nc4c3)c3c(N)nccn32)C1 [Linsitinib] (partner 1 µM)
Procedure, shortened: as §1

[2] = compound: CC(C)N(CCCNC(=O)Nc1ccc(C(C)(C)C)cc1)C[C@H]1O[C@@H](n2ccc3c(N)ncnc32)[C@H](O)[C@@H]1O + C[C@@H](Oc1cc(-c2cnn(C3CCNCC3)c2)cnc1N)c1c(Cl)ccc(F)c1Cl [Crizotinib] (partner 1 µM)
Procedure, shortened: as §1

[3] = compound: CC(C)N(CCCNC(=O)Nc1ccc(C(C)(C)C)cc1)C[C@H]1O[C@@H](n2ccc3c(N)ncnc32)[C@H](O)[C@@H]1O + Nc1nc2[nH]cc(CCc3ccc(C(=O)N[C@@H](CCC(=O)O)C(=O)O)cc3)c2c(=O)[nH]1 [Pemetrexed] (partner 0.2 µM)
Procedure, shortened: as §1

Cell Line	relative viability ([1]; first compound 0.08 µM)	relative viability ([1]; first compound 0.8 µM)	relative viability ([1]; first compound 2.53 µM)	relative viability ([1]; first compound 8 µM)	relative viability (Shikonin + Linsitinib; first compound 0.1 µM)	relative viability (Shikonin + Linsitinib; first compound 0.3162 µM)	relative viability (Shikonin + Linsitinib; first compound 1 µM)	relative viability ([2]; first compound 0.08 µM)	relative viability ([2]; first compound 0.253 µM)	relative viability ([2]; first compound 0.8 µM)	relative viability ([2]; first compound 2.53 µM)	relative viability ([2]; first compound 8 µM)	relative viability ([3]; first compound 0.08 µM)	relative viability ([3]; first compound 0.8 µM)	relative viability ([3]; first compound 2.53 µM)	relative viability ([3]; first compound 8 µM)	relative viability ([1]; first compound 0.253 µM)	relative viability (Shikonin + Linsitinib; first compound 0.01 µM)	relative viability ([3]; first compound 0.253 µM)
NCI-H1993	1.06	1.07	1.01	1.01	0.732	0.681	0.672	0.767	0.935	0.877	0.841	0.888	0.564	0.533	0.638	0.543	–	–	–
A-427	0.71	0.613	0.771	0.702	1.21	1.19	1.14	0.908	0.856	0.95	0.989	0.851	1.05	0.937	0.929	0.99	0.779	1.11	0.998
NCI-H2405	0.854	0.755	0.961	0.842	0.982	1.01	0.914	0.875	0.822	0.782	0.865	0.856	1.09	0.999	1.01	0.968	0.906	0.903	1.08
NCI-H1355	0.695	0.667	0.754	0.716	0.943	0.887	0.855	1.01	1.08	–	1.09	0.891	0.964	0.761	1.03	0.976	0.776	0.764	1.05
NCI-H358	0.593	0.565	0.562	0.542	0.688	0.857	0.511	0.614	0.554	0.717	0.589	0.448	0.183	0.162	0.168	0.166	0.605	0.916	0.159
SK-LU-1	0.424	0.516	0.552	0.469	1.27	0.999	1.01	1.03	0.931	0.969	1.08	0.875	1	1.04	0.983	0.915	0.448	1.26	1.01
NCI-H23	0.334	0.266	0.345	0.28	0.489	0.696	0.533	0.487	–	0.506	0.694	0.534	0.732	0.693	0.709	0.627	–	0.592	–
HOP-62	0.242	0.261	0.347	0.314	0.806	0.987	0.807	0.926	0.982	0.882	0.748	0.915	0.323	0.39	0.31	0.356	0.642	0.994	0.433
